For one assay, the target named is T1, Ret wt (Homo sapiens, UniProt P07949).
T1 construct: purchased Invitrogen PV3082
Put plainly: HTRF kinase activity test, RET wild type. The assay is classed as biochemical. Conditions: Table 3; read-out: RET Enzyme (wild type) IC50. The protocol:
This test combined peptide substrates and a single proprietary monoclonal antibody with HTRF technology, which was a highly sensitive and stable technology for detecting molecular interactions of proteins. The enzyme phosphorylates the substrate, then the Eu-labeled antibody binds to the phosphorylated substrate, and streptavidin-XL665 binds to all substrates. The TR-FRET signal was generated by the HTRF principle. […] Based on this, the inhibitory effect was evaluated.
The other compounds were diluted 3-fold gradiently with DMSO from the 10 mM stock solution to a total of 10 concentrations respectively.
Adding 4 volumes of distilled water to 1 volume of enzyme buffer 5×; 5 mM MgCl2; 1 mM DTT.
b) centrifuging the compound plate for 1 minute at 1000 g.
c) sealing the test board.
f) adding 4 μl of 1× kinase buffer to each well of the test plate, centrifuging the sample plate at 1000 g for 30 seconds, and placing it at room temperature for 10 minutes.
g) preparing a solution of 5× TK-substrate-biotin ([…]) in kinase buffer and 5×ATP (50 μM) in kinase buffer respectively.
h) starting the reaction by adding 2 μl STK-substrate-biotin and 2 μl ATP (prepared in the step g).
i) centrifuging the sample plate for 30 seconds at 1000 g. Sealing the test board and placing it at room temperature for 30 minutes.
) centrifuging at 1000 g for 30 seconds and placing it at room temperature for 1 hour.
The inhibition rate % was calculated as follows:
Inhibition rate %=[1−(fluorescence signal value of test compound−fluorescence signal value of positive control)/(average ratio of negative control−average ratio of positive control)]*100%
Ratio: generated from the measured fluorescence signal value
The average ratio of the positive control is the average ratio of the positive control (200 nM AT13148) in the sample plate;
The average ratio of negative controls is the average ratio of negative controls (0.1% DMSO) in the sample plate.
GraphPad 6.0 was used to fit the logarithm of the % inhibition rate and the compound concentration into a nonlinear regression (dose response−variable slope) to calculate the IC50 value.
For orientation: TR-FRET usually uses a lanthanide donor and a delayed reading to cut background.

The subject of the next assay is TT Cell. As to the kind of experiment: Cell inhibitory activity test (CCK8). The assay is classed as cell-based. Conditions: Table 3, 72 hours incubation. Here is the method: Cell Inhibitory Activity Test
1. preparing 90 μl of cell suspension in a 96-well plate with 4000 cells/well. Pre-incubating the culture plate in an incubator for 24 hours (37° C., 5% CO2).
2. adding 10 μl of test compounds of different concentrations to each well of cells, and each compound has multiple wells.
3. incubating the culture plate in the incubator for 72 hours.
4. adding 10 μl of CCK8 solution to each well (be careful not to generate bubbles in the well, otherwise they would affect the reading of the OD value).
5. incubating the culture plate in the incubator for 1-2 hours.
6. measuring the absorbance at 450 nm with a microplate reader.
7. according to the compound concentration and absorbance value, GraphpadPrism software was used to calculate the IC50 of each compound.

Assay [1] deals with RET wild-type, mutant and/or fusion-type. As to the kind of experiment: Overall statement on RET inhibitory activity (summary of Table 3). Conditions: statement in words summarising Table 3. An excerpt:
As shown in the above table, the example compounds of the present disclosure have improved inhibitory activity against RET wild-type, mutant and/or fusion-type.

T1 sequence (P07949 29-1114): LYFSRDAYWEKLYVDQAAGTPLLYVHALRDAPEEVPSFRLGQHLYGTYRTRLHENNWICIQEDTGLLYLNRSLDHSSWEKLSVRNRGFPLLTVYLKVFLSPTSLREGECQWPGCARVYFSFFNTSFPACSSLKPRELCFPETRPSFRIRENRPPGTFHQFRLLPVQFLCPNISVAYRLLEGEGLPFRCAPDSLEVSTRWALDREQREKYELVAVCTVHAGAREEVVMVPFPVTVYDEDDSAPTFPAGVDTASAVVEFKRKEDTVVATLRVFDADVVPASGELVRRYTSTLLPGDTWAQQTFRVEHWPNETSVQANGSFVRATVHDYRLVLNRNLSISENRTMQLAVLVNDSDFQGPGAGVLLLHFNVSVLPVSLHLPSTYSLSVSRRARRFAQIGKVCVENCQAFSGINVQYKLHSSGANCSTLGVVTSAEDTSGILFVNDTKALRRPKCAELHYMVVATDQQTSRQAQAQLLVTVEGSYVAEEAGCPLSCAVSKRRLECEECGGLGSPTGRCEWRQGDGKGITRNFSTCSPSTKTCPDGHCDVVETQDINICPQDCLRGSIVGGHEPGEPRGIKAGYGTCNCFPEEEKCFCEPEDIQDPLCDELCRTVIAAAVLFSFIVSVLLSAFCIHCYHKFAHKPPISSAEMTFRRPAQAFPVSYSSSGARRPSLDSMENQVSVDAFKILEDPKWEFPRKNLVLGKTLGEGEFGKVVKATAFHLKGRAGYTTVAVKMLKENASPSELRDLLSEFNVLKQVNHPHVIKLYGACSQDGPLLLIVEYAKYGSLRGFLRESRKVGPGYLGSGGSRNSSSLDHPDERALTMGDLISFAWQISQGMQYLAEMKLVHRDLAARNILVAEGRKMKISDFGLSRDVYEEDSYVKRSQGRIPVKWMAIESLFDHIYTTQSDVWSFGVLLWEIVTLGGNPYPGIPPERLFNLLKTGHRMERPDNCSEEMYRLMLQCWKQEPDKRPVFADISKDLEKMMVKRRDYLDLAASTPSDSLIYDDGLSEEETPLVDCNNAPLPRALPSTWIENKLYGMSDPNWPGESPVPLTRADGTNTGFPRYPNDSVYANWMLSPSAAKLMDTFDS

As to `Cc1ccnc(CN2CCN(c3ccc(-c4cc(-c5cnn(C)c5)cn5nc(N)c(C#N)c45)cn3)CC2)c1` [APS025], the IC50 on Ret wt was determined as 1.4 nM; in the assay with TT Cell (Homo sapiens, TT), 38.2 nM. Besides, the “inhibitory activity against RET wild-type, mutant and/or fusion-type” value (from here on “inhibitory activity”) in assay [1] is given as “excellent activity”.

With `COc1ccc(CN2CCN(c3ccc(-c4cc(-c5cnn(C)c5)cn5nc(O)c(C#N)c45)cn3)CC2)cn1` [APS083, 2-hydroxy-4-(6-(4-((6-methoxypyridin-3-yl)methyl)piperazin-1-yl)pyridin-3-yl)-6-(1-methyl-1H-pyrazol-4-yl)pyrazolo[1,5-a]pyridine-3-carbonitrile], the IC50 on Ret wt is 212 nM.

In the case of `CNc1nn2cc(-c3cnn(C)c3)cc(-c3ccc(N4CCN(Cc5ccc(OC)nc5)CC4)nc3)c2c1C#N` [APS086, 2-methylamino-4-(6-(4-((6-methoxypyridin-3-yl)methyl)piperazin-1-yl)pyridin-3-yl)-6-(1-methyl-1H-pyrazol-4-yl)pyrazolo[1,5-a]pyridine-3-carbonitrile], the IC50 on Ret wt came out at 234 nM.

Consider `Cn1cc(-c2cc(-c3ccc(N4CCN(Cc5c(F)cccc5F)CC4)nc3)c3c(C#N)c(N)nn3c2)cn1` [APS024, 2-amino-4-(6-(4-(2,6-difluorobenzyl)piperazin-1-yl)pyridin-3-yl)-6-(1-methyl-1H-pyrazole-4-yl)pyrazolo[1,5-a]pyridine-3-carbonitrile], for which the half-maximal inhibitory concentration (IC50) on Ret wt came to 1 nM; in the assay on TT Cell (Homo sapiens, TT) it was 7.1 nM. In addition, the “inhibitory activity” value in assay [1] is “excellent activity”.

Take `Cc1nn2cc(-c3cnn(C)c3)cc(-c3ccc(N4CCC(Cc5ccccn5)CC4)nc3)c2c1C#N` [APS072, 2-methyl-6-(1-methyl-1H-pyrazol-4-yl)-4-(6-(4-(pyridin-2-yl-methyl)piperidin-1-yl)pyridine-3-yl)pyrazolo[1,5-a]pyridine-3-carbonitrile]: the IC50 at Ret wt came to 78.3 nM.

In the case of `CCOc1cc(-c2ccc(N3CC4CC(C3)N4Cc3cncc(F)c3)nc2)c2c(C#N)c(N)nn2c1` [APS111, 2-amino-6-ethoxy-4-(6-(6-((5-fluoropyridin-3-yl)methyl)-3,6-diazabicyclo[3.1.1]heptane-3-yl)pyridin-3-yl)pyrazolo[1,5-a]pyridine-3-carbonitrile], it took 6.4 nM to reach half-maximal inhibition in the assay with TT Cell (Homo sapiens, TT) (IC50). Also, in assay [1], the “inhibitory activity” value is “excellent activity”.

As for `Cn1cc(-c2cc(-c3ccc(N4CCN(Cc5ccccn5)CC4)nc3)c3c(C#N)c(N)nn3c2)cn1` [APS035, 2-amino-6-(1-methyl-1H-pyrazol-4-yl)-4-(6-(4-(4-(pyridin-2-yl)methyl)piperazin-1-yl)pyridin-3-yl)pyrazolo[1,5-a]pyridine-3-carbonitrile], the IC50 on Ret wt is 1.7 nM; with TT Cell (Homo sapiens, TT), 65.4 nM. Besides, the “inhibitory activity” value in assay [1] was “excellent activity”.

In the assay on TT Cell (Homo sapiens, TT), `COc1ccc(CN2CCN(c3ccc(-c4cc(-c5cnn(C)c5)cn5nc(N)c(C#N)c45)cn3)CC2)cn1` [APS068, 2-amino-4-(6-(4-((6-methoxypyridin-3-yl)methyl)piperazin-1-yl)pyridin-3-yl)-6-(1-methyl-1H-pyrazol-4-yl)pyrazolo[1,5-a]pyridine-3-carbonitrile] came in with an IC50 of 11.3 nM. Further, the “inhibitory activity” value in assay [1] is recorded as “excellent activity”.

In the case of `Cc1nn2cc(-c3cnn(C)c3)cc(-c3ccc(N4CCN(C(=O)Cc5ccc(F)cn5)CC4)nc3)c2c1C#N` [APS071, 2-methyl-4-(6-(4-(2-(5-fluoropyridin-2-yl)acetyl)piperazin-1-yl)pyridin-3-yl)-6-(1-methyl-1H-pyrazol-4-yl)pyrazolo[1,5-a]pyridine-3-carbonitrile], the IC50 at Ret wt was 64.6 nM.

As to `Cn1cc(-c2cc(-c3ccc(N4CCN(Cc5cc(F)ccc5F)CC4)nc3)c3c(C#N)c(N)nn3c2)cn1` [APS020], the IC50 on Ret wt came to 1.1 nM; in the assay on TT Cell (Homo sapiens, TT), 14.3 nM. Moreover, in assay [1], the “inhibitory activity” value is “excellent activity”.

For the molecule `Cc1cccnc1CN1CCN(c2ccc(-c3cc(-c4cnn(C)c4)cn4nc(N)c(C#N)c34)cn2)CC1` [APS022], the IC50 at Ret wt is 2.2 nM; in the assay on TT Cell (Homo sapiens, TT) it was 45.5 nM. Also, the “inhibitory activity” value in assay [1] was “excellent activity”.

On to `Cn1cc(-c2cc(-c3ccc(N4CCN(Cc5cccc(F)c5)CC4)nc3)c3c(C#N)c(N)nn3c2)cn1` [APS019], for which the IC50 is < 1 nM on Ret wt and 7.8 nM in the assay with TT Cell (Homo sapiens, TT). Besides, the “inhibitory activity” value in assay [1] is “excellent activity”.

For `CCOc1cc(-c2ccc(N3CC4CC(C3)N4Cc3cncc(Cl)c3)nc2)c2c(C#N)c(N)nn2c1` [APS112, 2-amino-4-(6-(6-((5-chloropyridin-3-yl)methyl)-3,6-diazabicyclo[3.1.1]heptan-3-yl)pyridine-3-yl)-6-ethoxypyrazolo[1,5-a]pyridine-3-carbonitrile], the IC50 at Ret wt is 18.9 nM.

Take `Cn1cc(-c2cc(-c3ccc(N4CCN(Cc5ccccc5Cl)CC4)nc3)c3c(C#N)c(N)nn3c2)cn1` [APS027, 2-amino-4-(6-(4-(2-chlorobenzyl)piperazin-1-yl)pyridin-3-yl)-6-(1-methyl-1H-pyrazol-4-yl) pyrazolo[1,5-a]pyridine-3-carbonitrile]: the IC50 at Ret wt was determined as 2.4 nM; in the assay with TT Cell (Homo sapiens, TT) it was 85.7 nM. In assay [1], the “inhibitory activity” value was “excellent activity”.

Take `COc1ccc(CN2CCN(c3ccc(-c4cc(-c5cnn(C)c5)cn5nc(NC(C)=O)c(C#N)c45)cn3)CC2)cn1` [APS085, N-(3-cyano-4-(6-(4-((6-methoxypyridin-3-yl)methyl)piperazin-1-yl)pyridin-3-yl)-6-(1-methyl-1H-pyrazol-4-yl)pyrazolo[1,5-a]pyridin-2-yl)acetamide]: on Ret wt, the IC50 is 865 nM.

Take `Cn1cc(-c2cc(-c3ccc(N4CC5CC(C4)N5Cc4ccccn4)nc3)c3c(C#N)c(N)nn3c2)cn1` [APS038, 2-amino-6-(1-methyl-1H-pyrazol-4-yl)-4-(6-(6-(pyridin-2-yl-methyl)-3,6-diazabicyclo[3.1.1]heptan-3-yl)pyridin-3-yl)pyrazolo[1,5-a]pyridine-3-carbonitrile]: the IC50 came to 1 nM on Ret wt and 37.7 nM in the assay with TT Cell (Homo sapiens, TT). Besides, in assay [1], the “inhibitory activity” value was “excellent activity”.

The molecule `CCOc1cc(-c2ccc(N3CCN(Cc4ccc(OC)nc4)CC3)nc2)c2c(C#N)c(N)nn2c1` [APS099] showed an IC50 with TT Cell (Homo sapiens, TT) of 16.2 nM. Besides, the “inhibitory activity” value in assay [1] is “excellent activity”.

As for `Cn1cc(-c2cc(-c3ccc(N4CCN(Cc5cncc(F)c5)CC4)nc3)c3c(C#N)c(N)nn3c2)cn1` [APS014], the IC50 on Ret wt was 1 nM; in the assay with TT Cell (Homo sapiens, TT), 44.6 nM. Besides, the “inhibitory activity” value in assay [1] is recorded as “excellent activity”.

With “2-amino-4-(6-(4-((2-fluorobenzyl)piperazine-6-(1-methyl-1H-pyrazol-4-yl)pyrazolo[1,5-a]pyridine-3-carbonitrile [APS015]”, the results for the IC50 at Ret wt and in the assay with TT Cell were 1.7 nM and 27.7 nM, respectively. The “inhibitory activity” value in assay [1] is “excellent activity”.

Regarding `COc1ccc(CN2C3CC2CN(c2ccc(-c4cc(OCCOC(C)C)cn5nc(N)c(C#N)c45)cn2)C3)cn1` [APS120, 2-amino-6-(2-isopropoxyethoxy)-4-(6-(6-((6-methoxypyridin-3-yl)methyl)-3,6-diazabicyclo [3.1.1]heptan-3-yl)pyridin-3-yl)pyrazolo[1,5-a]pyridine-3-carbonitrile], in the assay on TT Cell (Homo sapiens, TT), the IC50 came out at 16.9 nM. Further, the “inhibitory activity” value in assay [1] is recorded as “excellent activity”.

With `COCCOc1cc(-c2ccc(N3CCN(Cc4ccc(OC)nc4)CC3)nc2)c2c(C#N)c(N)nn2c1` [APS100, 2-amino-6-(2-methoxyethoxy)-4-(6-(4-((6-methoxypyridin-3-yl)methyl)piperazin-1-yl)pyridine-3-yl)pyrazolo[1,5-a]pyridine-3-carbonitrile], in the assay with TT Cell (Homo sapiens, TT), the IC50 was determined as 22.4 nM. The “inhibitory activity” value in assay [1] was “excellent activity”.

Usually IC50 stands for the point on the concentration scale where inhibition reaches its midpoint.
